# Results published in US20030220310A1, “Epoxy-steroidal aldosterone antagonist and calcium channel blocker combination therapy for treatment of congestive heart failure” (priority 2003, published 2003).
# Where “and” joins values, the source holds several entries; their conditions need not be identical. Identical values can stand only once.
# Columns and labels:
# [1] = system: patients with mild to moderate hypertension; assay: Example 19 clinical study: eplerenone versus placebo co-administered with a calcium-channel blocker; type: in vivo, human
# Text: This multicenter, randomized, double-blind, placebo-controlled, placebo run-in, parallel group trial involving a minimum of 120 randomized patients with hypertension (seated diastolic blood pressure [seDBP] ≧95 mmHg and <110 mmHg and seated systolic BP [seSBP] <180 mmHg while taking a CCB) will consist of a one- to two-week pretreatment screening period followed by a two- to four-week single-blind placebo run-in period and an 8-week double-blind treatment period. Eligible patients will be patients currently receiving a CCB as part of their antihypertensive medication. […] The dose will not be changed for patients with adequate BP control. […] If the dose has been increased at Week 2, the patient will be reassessed at Week 6. […] If BP is uncontrolled at Week 6 and the dose has been increased at Week 2 or Week 4, the patient must be withdrawn from the study. If symptomatic hypotension (i.e., lightheadedness, dizziness, or syncope associated with low BP) occurs at any time during the study, or if DBP is ≧110 mmHg or SBP is ≧180 mmHg at any time during the trial, the patient must be withdrawn. Patients will receive study medication for a total of 8 weeks.
# Patients will return to the clinic for evaluations at Weeks 0 (baseline), 2, 4, 6, 8, and 9. Heart rate, BP, adverse events and concomitant medication will be assessed at each visit. Hematology and biochemistry evaluations and urinalysis for safety will be at Weeks 0, 8, and 9. Serum potassium levels will be determined at Weeks 0 (baseline), 2, 4, 6, 8, and 9. Plasma renin, serum aldosterone, and plasma cortisol will be determined at Weeks 0 and 8. A 12-lead electrocardiogram and physical examination will be done at screening and at Week 9.
# Eligible patients will be either currently receiving a CCB alone, or receiving a CCB as part of their antihypertensive medication. […] The dose will not be changed for patients with adequate BP control. […] If the dose has been increased at Week 2, the patient will be reassessed at Week 6. The dose of study medication will not be changed for patients with adequate BP control. […] If BP is uncontrolled at Week 6 and the dose has been increased at Week 2 or Week 4, the patient must be withdrawn from the study. The dose of study medication will not be changed for patients with adequate BP control. If symptomatic hypotension (i.e., lightheadedness, dizziness, or syncope associated with low BP) occurs at any time during the study, or if DBP is ≧110 mmHg or SBP is ≧180 mmHg at any time during the study, the patient must be withdrawn. Patients will receive study medication for a total of eight weeks.
# Patients will return to the clinic for evaluations at Weeks 0, 2, 4, 6, 8, and 9. Heart rate, BP, adverse events and concomitant medication will be assessed at each visit. Hematology and biochemistry evaluations and urinalysis for safety will be at Weeks 0, 8, and 9. Serum potassium levels will be determined at Weeks 0, 2, 4, 6, 8, and 9. Plasma renin, serum aldosterone, and plasma cortisol will be determined at Weeks 0 and 8. A 12-lead electrocardiogram and physical examination will be done at screening and at Week 9.
# The treatment difference will be evaluated based on the mean change from baseline in seated trough cuff DBP at Week 8.
# [2] = system: rats with ligated left anterior descending coronary artery; assay: Assay D: Myocardial Infarction Rat Model; type: in vivo; settings: combination of calcium channel blocker and epoxymexrenone versus either component alone, after six weeks
# Method: Assay “D”: Myocardial Infarction Rat Model: Male rats are anesthetized and the heart is exteriorized following a left sided thoracotomy. The left anterior descending coronary artery is ligated with a suture. The thorax is closed and the animal recovers. Sham animals have the suture passed through without ligation. One week prior to the surgery, animals to undergo infarction are divided into separate groups and drug treatment is begun. Groups of animals are administered vehicle, calcium channel blocker alone, epoxymexrenone alone, and combinations of calcium channel blocker and epoxymexrenone, at various doses, as follow: [table] After six weeks, systolic and diastolic blood pressure, left ventricular end diastolic pressure, left ventricular dP/dt, and heart rate are evaluated. The hearts are removed, weighed, measured and fixed in formalin. Collagen content of heart sections are evaluated using computerized imaged image analysis of picrosirius stained sections.
# [3] = system: patients with heart failure after an acute myocardial infarction; assay: Example 20 clinical study: eplerenone plus CCB in heart failure following acute myocardial infarction; type: in vivo, human
# Text: Clinical Study: Safety and Efficacy of Eplerenone When Co-Administered with a Calcium-Channel Blocker in Patients with Heart Failure Followin Acute Myocardial Infarctiong
# Secondary endpoints include cardiovascular morbidity and mortality. The study is a multicenter, randomized, double-blind, placebo-controlled, two-arm, parallel group trial that will continue until 1,012 deaths occur, which is estimated to require approximately 6,200 randomized patients followed for an average of approximately 2.5 years.
# Eligible patients may be identified for inclusion at any time following emergency room evaluation and presumptive diagnosis of AMI with HF. […]
# Patients will receive CCB therapy and may have received anticoagulants and antiplatelet agents, and may have received thrombolytics or emergency angioplasty. […] Serum potassium will be determined at 48 hours after initiation of treatment, at 1 and 5 weeks, at all other scheduled study visits, and within one week following any dose change.
# Study visits will occur at screening, baseline (randomization), 1 and 4 weeks, 3 months, and every 3 months thereafter until the study is terminated. […] Vital signs (seated heart rate and BP), New York Heart Association (NYHA) functional class, adverse events, and selected concurrent medications will be recorded at every visit. […]
# [4] = X-ray powder diffraction, Form H content of dried solids; type: physicochemical; settings: for Form H Peak Area 12° Two Theta Peak / Estimated Weight Percent of Form H: methyl ethyl ketone solvate dried at 100° C.
# [5] = Differential scanning calorimetry, melting/decomposition; type: physicochemical; settings: cooling rate (0) 1.5° C./min.; endpoint (0) 25° C.; 100.8% eplerenone seeded with Form H; analyzed by DSC
# Text: Melting/decomposition ranges were defined from the extrapolated onset to the maximum of the melting/decomposition endotherm. […] One or more endothermal events at lower temperatures were associated with enthalpy changes that occurred as solvent was lost from the solvate crystal lattice. The highest temperature endotherm or endotherms were associated with the melting/decomposition of Form L or Form H eplerenone.
# [6] = system: rats made hypertensive by renal artery clip; assay: Assay C: Hypertensive Rat Model; type: in vivo; settings: combination of calcium channel blocker and epoxymexrenone versus either component alone, after 12 to 24 weeks
# Method: Assay “C”: Hypertensive Rat Model Male rats are made hypertensive by placing a silver clip with an aperture of 240 microns on the left renal artery, leaving the contralateral kidney untouched. Sham controls undergo the same procedure but without attachment of the clip. One week prior to the surgery, animals to be made hypertensive are divided into separate groups and drug treatment is begun. Groups of animals are administered vehicle, calcium channel blocker alone, epoxymexrenone alone, and combinations of calcium channel blocker and epoxymexrenone at various doses: [table] After 12 to 24 weeks, systolic and diastolic blood pressure, left ventricular end diastolic pressure, left ventricular dP/dt, and heart rate are evaluated. The hearts are removed, weighed, measured and fixed in formalin. Collagen content of heart sections are evaluated using computerized image analysis of picrosirius stained sections.
# [7] = CCB and eplerenone compared to CCB and placebo
# [8] = eplerenone plus CCB versus CCB plus placebo, eight weeks, hypertensive patients
# [9] = 3% diepoxide in starting eplerenone mixture
# [10] = 10% 11,12-epoxide in starting eplerenone mixture
compound,measurement,setting,value
"COC(=O)[C@@H]1CC2=CC(=O)CC[C@]2(C)C23O[C@@H]2C[C@@]2(C)[C@@H](CC[C@@]24CCC(=O)O4)[C@H]13 (stereo partly drawn) [eplerenone, Pregn-4-ene-7,21-dicarboxylic acid, 9,11-epoxy-17-hydroxy-3-oxo-,γ-lactone, methyl ester, (7α,11α,17β)-]",Active renin levels,[1]; [7],greater increase
same,aldosterone levels,[1]; [7],greater increase
same,serious adverse events,[1]; eplerenone added to CCB therapy,no serious adverse events
same,change in mean diastolic blood pressure,[1]; [8],"greater for the dual therapy group, compared to monotherapy, but this difference did not reach statistical significance"
same,change in systolic blood pressure,[1]; [8],significant reduction
same,cardiac performance,[2],improvements in cardiac performance
same,primary end point of all cause mortality,[3]; eplerenone plus CCB relative to CCB alone,Improvement
same,"secondary end points (cardiovascular mortality, hospitalizations, quality of life etc.)",[3]; eplerenone plus CCB versus CCB alone,Beneficial effects
same,Form H Peak Area 12° Two Theta Peak,"[4]; 1% 11,12-epoxide in starting eplerenone mixture",None Detected
same,Estimated Weight Percent of Form H,[4]; [9],10%
same,Form H Peak Area 12° Two Theta Peak,[4]; [9],1168
same,Form H Peak Area 12° Two Theta Peak,[4]; 5% diepoxide in starting eplerenone mixture,4175
same,Estimated Weight Percent of Form H,[4]; [10],10-15%
same,Form H Peak Area 12° Two Theta Peak,[4]; [10],1541
same,Weight Percent Form H,"[4]; Cooling Rate High, End Point High, Impurity Level High, High Fluid Bed drying",25%
same,Weight Percent Form H,"[4]; Cooling Rate High, End Point High, Impurity Level High, Low Fluid Bed drying",4.7%
same,Weight Percent Form H,"[4]; Cooling Rate High, End Point High, Impurity Level High, Vacuum Oven drying",29%
same,Weight Percent Form H,"[4]; Cooling Rate Low, End Point Low, Impurity Level Low, Low Fluid Bed drying",5.5%
same,Weight Percent Form H (XPRD),"[4]; cooling rate (0) 1.5° C./min., endpoint (0) 25° C., 100.8% eplerenone seeded with Form H, analyzed by XPRD",77 Weight Percent
same,Weight Percent Form H (XPRD),"[4]; cooling rate (0) 1.5° C./min., endpoint (0) 25° C., impurity level (0) = 100.8% purity eplerenone starting material as printed, three runs",5 Weight Percent and <3% Weight Percent
same,Weight Percent Form H (XPRD),"[4]; cooling rate (+) 3° C./min., endpoint (+) 45° C., impurity level (+) 89.3% purity eplerenone starting material",29 Weight Percent
same,Weight Percent Form H (XPRD),"[4]; cooling rate (+) 3° C./min., endpoint (−) 5° C., impurity level (+) 89.3% purity eplerenone starting material",9 Weight Percent
same,Weight Percent Form H (XPRD),"[4]; cooling rate (−) 0.1° C./min., endpoint (+) 45° C., impurity level (+) 89.3% purity eplerenone starting material",31 Weight Percent
same,Weight Percent Form H (DSC),[5],100 Weight Percent
same,cardiac performance,[6],improvements in cardiac performance
